Experimental data from patent US20260285831A1, “LACTAM DERIVATIVES FOR INHIBITING NLRP3 AND USES THEREOF” (Ventus Therapeutics U.S., Inc., priority 2023, published 2026).

Each compound was assayed against T1, human NLRP3 (Homo sapiens, UniProt Q96P20) (assay: Human whole blood (hWB) NLRP3 assay (IL-1β release after LPS priming and ATP activation)). Conditions: human whole blood, LPS 1 μg/ml priming, ATP activation; Table C, class symbols; read-out: hWB IL-1β IC50.
T1 construct: Human whole blood is drawn from healthy volunteers after obtaining written informed consent; from tissue; host or cells: human whole blood from healthy volunteers (heparin lithium tubes)
T1 sequence (Q96P20 whole entry): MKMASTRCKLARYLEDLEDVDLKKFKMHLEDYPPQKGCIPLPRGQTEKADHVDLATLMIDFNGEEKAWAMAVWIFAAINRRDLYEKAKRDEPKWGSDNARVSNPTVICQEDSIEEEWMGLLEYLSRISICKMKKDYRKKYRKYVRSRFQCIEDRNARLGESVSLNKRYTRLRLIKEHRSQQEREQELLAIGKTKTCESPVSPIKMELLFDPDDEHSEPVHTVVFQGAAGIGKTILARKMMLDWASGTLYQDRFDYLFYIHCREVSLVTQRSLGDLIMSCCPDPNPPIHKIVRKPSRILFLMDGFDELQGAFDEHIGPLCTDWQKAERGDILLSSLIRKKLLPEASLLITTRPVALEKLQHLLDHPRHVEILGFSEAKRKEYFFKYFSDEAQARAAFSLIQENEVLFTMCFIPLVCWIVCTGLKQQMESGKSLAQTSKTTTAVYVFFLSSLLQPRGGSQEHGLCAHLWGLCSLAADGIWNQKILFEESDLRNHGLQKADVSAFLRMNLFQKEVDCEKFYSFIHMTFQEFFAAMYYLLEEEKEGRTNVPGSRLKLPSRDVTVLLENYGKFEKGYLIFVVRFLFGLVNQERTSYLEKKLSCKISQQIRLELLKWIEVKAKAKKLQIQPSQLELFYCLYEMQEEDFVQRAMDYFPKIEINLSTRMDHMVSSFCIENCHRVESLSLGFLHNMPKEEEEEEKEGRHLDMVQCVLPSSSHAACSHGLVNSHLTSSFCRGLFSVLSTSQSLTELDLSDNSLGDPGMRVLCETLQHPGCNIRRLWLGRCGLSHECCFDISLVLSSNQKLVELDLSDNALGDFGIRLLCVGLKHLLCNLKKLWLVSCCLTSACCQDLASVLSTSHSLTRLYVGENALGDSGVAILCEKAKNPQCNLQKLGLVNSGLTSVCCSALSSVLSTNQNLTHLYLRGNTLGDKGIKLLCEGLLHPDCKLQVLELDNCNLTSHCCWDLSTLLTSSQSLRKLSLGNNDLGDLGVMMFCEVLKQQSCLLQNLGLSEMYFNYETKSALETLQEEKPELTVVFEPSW
Assay type: cell-based
Description: Human Whole Blood (hWB) NLRP3 Assay
Human whole blood is drawn from healthy volunteers after obtaining written informed consent. Heparin lithium coated tubes are used to collect blood from volunteers. Blood samples are distributed on 96 well plates using 90 μl per well.
Priming procedure: Priming is performed by adding 5 μl of LPS (026:B6; Sigma L-2654) at a final concentration of 1 μg/ml for 4.5 hours in a humidified incubator with 37° C., 5% CO2. Thirty minutes prior to NLRP3 activation, 5 μl of a 20× compound solution or vehicle (2% dimethylsulfoxide (DMSO)) is added to each well and plates were incubated on a shaker (450 rpm) in a humidified incubator with 37° C., 5% CO2.
Alternative priming procedure: Thirty minutes prior to LPS priming, 5 μl of a 20× compound solution or vehicle (2% dimethylsulfoxide (DMSO)) is added to each well and plates were incubated on a shaker (450 rpm) in a humidified incubator with 37° C., 5% CO2. Priming is performed by adding 5 μl of LPS (026:B6; Sigma L-2654) at a final concentration of 1 μg/ml for 5 hours in a humidified incubator with 37° C., 5% CO2.
Activation is then performed by adding 3.3 μl of a 31×ATP solution per well. At the end of the 30 minutes stimulation, the plates are centrifuged (800 g, 10 min, room temperature) and the plasma from each well is frozen at −80° C. […] levels in the supernatant were analyzed using a mesoscale discovery assay (MSD K151TUK) according to the manufacturers' instructions.
There is no detectable difference in assay IC50 results using the priming procedure versus the alternative priming procedure.
Data provided in Table C, below. hWB […] Assay: A represents an IC50 value <0.3 μM; B represents an IC50 value ≥0.3 μM and <0.5 μM; C represents an IC50 value ≥0.5 μM and <1.0 μM; D represents an IC50 value ≥1.0 μM and <10 μM; E represents an IC50 value ≥10 μM. Dashed (--) lines indicate no data available.

IC50 [nM] | SMILES
1000 to 10000 | CC1(C)C(=O)N([C@H]2CCN(CCCC(=O)O)C2=O)c2c(F)cc(C3CC3)c(F)c21 [Compound 16B, (S)-4-(3-(5-cyclopropyl-4,7-difluoro-3,3-dimethyl-2-oxoindolin-1-yl)-2-oxopyrrolidin-1-yl)butanoic acid]
1000 to 10000 | CC1(C)C(=O)N(c2cc(C(F)(F)F)cn(CCCC(=O)O)c2=O)c2c(F)cc(C3CC3)c(F)c21 [Compound 12, 4-(3-(5-cyclopropyl-4,7-difluoro-3,3-dimethyl-2-oxoindolin-1-yl)-2-oxo-5-(trifluoromethyl)pyridin-1(2H)-yl)butanoic acid]
500 to 1000 | CC1(C)C(=O)N(c2nccn([C@H]3CCC[C@@H]3CC(=O)O)c2=O)c2c(F)cc(C3CC3)c(F)c21 (single isomer, unassigned) [Compound 20C*]
1000 to 10000 | C[C@H](CCC(=O)O)N1CC[C@@H](N2C(=O)C(C)(C)c3c(F)c(C4CC4)cc(F)c32)C1=O (single isomer, unassigned) [Compound 24D*]
